Type in all cases: cell-based
Assay [1] relates to Human Colon Cancer Cell Line (CACO-2). Nature of the assay: Tumor cell proliferation assay (MTT), CACO-2. The conditions noted are these: concentration of 10^−5 mol/L, preliminary screening, 72 hours, read-out: Inhibition rate % CACO-2. The text has this:
(§1) The assay used generally is the blue tetrazolium bromide (MTT) method. […] The amount of formazan can be detected by the microplate reader through the absorption value at 570 nm. The amount of formazan product generated is proportional to the number of living cells in the sample, so the OD value may reflect the number of living cells and the ability of a test drug to inhibit or kill cells. The MTT assay may be used in determining the ability of different compounds of the present invention to inhibit one or more cancer cells proliferation. Similar assays can be designed along the same lines for any cancer cell using techniques well known in the art.
(§2) The assay used generally is the blue tetrazolium bromide (MTT) method. […] Intracellular purple formazan salt crystals can be solved in DMSO and the absorption value at 570 nm is detected by the microplate reader, then the number of living cells can be detected indirectly. So MTT assay may be used to determine the ability of a compound of the present invention to inhibit cell proliferation. Similar assays can be designed along the same lines for any cancer cell using techniques well known in the art.
2.2.10 Human Colon Cancer Cell Line (CACO-2)
The cell of 2.2.10 cultured in DMEM/High glucose medium containing 12% fetal bovine serum in the condition of 37° C., 5% CO2.
(§3) 2.3.1 Cell seeding: Trypsinize the cell by 0.05% trypsin-EDTA and add RPMI 1640 medium (DMEM or 5A) containing 12% calf serum. Count the number, then dilute to 1.67×10^4/ml. Add 180 ul/well to the 96 well plate (3000 cells/well).
(§4) 2.3.2 Culture: cells are incubated for 24 hours at 37° C. under 5% CO2.
(§5) 2.3.3 Preliminary screening: The compounds are firstly diluted to 0.1 mol/L with DMSO, and then diluted to three concentrations of 10^−5 mol/L, 10^−6 mol/L and 10^−7 mol/L. Add 20 ul test compounds to the 96 well plate and incubate for 72 hours. Each group has three parallel wells and all experiments repeat three times. Each inhibition ratio is calculated, then an average value of three times is taken as the measured value. 2.3.4 Staining 2.3.4.1 Attached cell: add 20 ul/well MTT to the 96-well plates; incubate for 4 hours in the incubator. Pour out the culture medium in the well and add 100 ul/well DMSO. Shake the plate for 5 min. 2.3.4.2 Suspension cell: add 20 ul/well MTT to the 96-well plates; incubate for 4 hours in the incubator. Add 50 ul/well 20% SDS and incubate for overnight in the incubator. 2.3.5 Reading the plates: read the absorbance A570-A630 with the Infinite M200 microtiter plate reader. Calculate the inhibition ratio of the test compounds. 2.3.6 Secondary screening: the compounds whose inhibition ratio is greater than 50% at the concentrations of 10^−5 mol/L in the preliminary screening will be picked out for Secondary screening. Dilute these compounds to ten concentrations: 10^−5 mol/L, 0.5×10^−5 mol/L, 10^−6 mol/L, 0.8×10^−6 mol/L, 0.6×10^−6 mol/L, 0.4×10^−6 mol/L, 0.2×10^−6 mol/L, 10^−7 mol/L, 0.8×10^−7 mol/L and 0.4×10^−7 mol/L. Add 20 ul test compound solution to the 96 well plate and incubate for 48 hours. Each group has three parallel wells and all experiments repeat for three times. Read the plates and calculate the inhibition ratio according to the preliminary screening method. 2.3.7 Calculate the Inhibition Ratio of Cell Proliferation and the IC50
(§6) According to the inhibition ratio of cell proliferation at the different concentrations of the compound, inhibition ratio of 50% of the test compound is calculated through the logarithm of the concentration of the compound with the Logit [I] linear regression, and an average value of three times is taken as the measured value of a sample.

Assay [2] concerns Human Leukemia Line (K562). Put plainly: Tumor cell proliferation assay (MTT), K562. The conditions noted are these: for inhibition at 10 µM: concentration of 10^−5 mol/L, preliminary screening, 72 hours, read-out: Inhibition rate % K562; for IC50: secondary screening, 48 hours.
Text: as §1, §2
2.2.3 Human Leukemia Line (K562)
The cells of the 2.2.1, 2.2.2, 2.2.3, 2.2.4, 2.2.5 cultured with RPMI 1640 containing 12% calf serum in the condition of 37° C., 5% CO2.
as §3, §4, §5, §6

The test system of assay [3] is Human Breast Cancer Cell Line (MCF-7). Nature of the assay: Tumor cell proliferation assay (MTT), MCF-7. The conditions noted are these: for inhibition at 10 µM: MCF7, concentration of 10^−5 mol/L, preliminary screening, 72 hours, read-out: Inhibition rate % MCF-7; for IC50: MCF7, secondary screening, 48 hours.
Text: as §1, §2
2.2.9 Human Breast Cancer Cell Line (MCF-7);
The cells of 2.2.8, 2.2.9 cultured in DMEM/High glucose medium containing 12% calf serum in the condition of 37° C., 5% CO2.
as §3, §4, §5, §6

For orientation: inhibition means the percentage by which the read-out fell short of the control. In general, IC50 refers to the concentration that gives 50% inhibition. As for `CCN(CC)CCNC(=O)c1c(C)[nH]c2c1CCC/C2=C1/C(=O)Nc2ccc(F)cc21` [I-2, N-(2-(diethylamino)ethyl)-2-methyl-7-[1,2-dihydro-5-fluoro-2-oxo-3H-indol-(Z)-3-ylidene]-4,5,6,7-tetrahydro-1H-indole-3-carboxamide], the results for the inhibition at 10 µM in assay [1], in assay [2] and in assay [3] were 43%, 95.3% and 55.4%, respectively. Besides, the IC50 in assay [2] came out at 3510 nM; in assay [3] it was 7.88 µM.
With `CCN(CC)CCNC(=O)c1c(C)[nH]c2c1CCC/C2=C1/C(=O)Nc2ccccc21` [I-5, N-(2-(diethylamino)ethyl)-2-methyl-7-[1,2-dihydro-2-oxo-3H-indol-(Z)-3-ylidene]-4,5,6,7-tetrahydro-1H-indole-3-carboxamide], the inhibition at 10 µM in assay [1] amounted to 44.1%; in assay [2], 93.3%; in assay [3], 50.5%. Further, the results for the IC50 in assay [2] and in assay [3] were 2940 nM and 6.94 µM, respectively.
In the case of `Cc1[nH]c2c(c1C(=O)NCCO)CCC/C2=C1/C(=O)Nc2ccccc21` [I-8, N-(2-hydroxyethyl)-2-methyl-7-[1,2-dihydro-2-oxo-3H-indol-(Z)-3-ylidene]-4,5,6,7-tetrahydro-1H-indole-3-carboxamide], the values for the inhibition at 10 µM in assay [1], in assay [2] and in assay [3] were 17%, 39.4% and 25.2%, respectively.
As for `Cc1[nH]c2c(c1C(=O)NCCO)CCC/C2=C1/C(=O)Nc2ccc(F)cc21` [I-9, N-(2-hydroxyethyl)-2-methyl-7-[1,2-dihydro-5-fluoro-2-oxo-3H-indol-(Z)-3-ylidene]-4,5,6,7-tetrahydro-1H-indole-3-carboxamide], in assay [1], the inhibition at 10 µM turned out to be 18%.
As to `Cc1[nH]c2c(c1C(=O)N1CCN(C)CC1)CCC/C2=C1/C(=O)Nc2ccc(F)cc21` [I-14, 2-methyl-3-(4-methylpiperazine-1-carbonyl)-7-[1,2-dihydro-5-fluoro-2-oxo-3H-indol-(Z)-3-ylidene]-4,5,6,7-tetrahydro-1H-indole], the inhibition at 10 µM in assay [1] is 2.36%.
Take `Cc1[nH]c2c(c1C(=O)NCC(O)CN1CCCCC1)CCC/C2=C1/C(=O)Nc2ccccc21` (stereo not drawn) [I-73, N-(2-hydroxy-3-(piperidin-1-yl)propyl)-2-methyl-7-[1,2-dihydro-2-oxo-3H-indol-(Z)-3-ylidene]-4,5,6,7-tetrahydro-1H-indole-3-carboxamide]: the results for the inhibition at 10 µM in assay [1], in assay [2] and in assay [3] were 44.4%, 94.8% and 43.4%, respectively. The same compound came in with an IC50 in assay [2] of 720 nM.
For the compound `Cc1[nH]c2c(c1C(=O)NCC(O)CN1CCCCC1)CCC/C2=C1/C(=O)Nc2ccc(F)cc21` (stereo not drawn) [I-74, N-(2-hydroxy-3-(piperidin-1-yl)propyl)-2-methyl-7-[1,2-dihydro-5-fluoro-2-oxo-3H-indol-(Z)-3-ylidene]-4,5,6,7-tetrahydro-1H-indole-3-carboxamide], the inhibition at 10 µM in assay [1] amounted to 83.1%; in assay [2], 95.1%; in assay [3], 70.7%. Further, the results for the IC50 in assay [2] and in assay [3] were 930 nM and 7.01 µM, respectively.

(Values after patent publication US8084621B2, “3-Pyrrolo[b]cyclohexylene-2-dihydroindolinone derivatives and uses thereof” (Jiangsu Simcere Pharmaceutical R&D Co. Ltd., priority 2006, dated 2011).)
